Columns and labels:
[1] = system: gene expression in PBMCs; experiment: RNA-seq differential gene expression in PBMCs; type: in vivo, human
Protocol: For all subjects at both visits, total RNA was extracted from muscle biopsy tissue and PBMC homogenate using RNeasy plus mini kit (Qiagen) with on-column DNase treatment according to manufacturer's protocol. The final elution was made in 45 ul of dH2O. The concentration and integrity of the total RNA were estimated by Ribogreen assay (Thermo Fisher Scientific), and Fragment Analyzer (Advanced Analytical), respectively, and 10 ng of total RNA was used for downstream RNA-seq applications using the SMARTer Stranded Total RNA-Seq Kit v2—Pico Input Mammalian Kit (IlluminaTakara Bio USA, Inc., Mountian View, CA) as per manufacturer's recommended protocol. Library quantity was assessed by Picogreen Assay (Thermo Fisher Scientific), and the library quality was estimated by utilizing a DNA High Sense chip on a Caliper Gx (Perkin Elmer). Accurate quantification of the final libraries for sequencing applications was determined using the qPCR-based KAPA Biosystems Library Quantification kit (Kapa Biosystems, Inc.). Each library pooled equimolar prior to clustering. One hundred bp paired-end sequencing was performed on an Illumina NovaSeq S4 sequencer (Illumina, Inc.). Two subjects were discarded from the PBMC samples and two from the muscle samples due to either insufficient tissue quantity, participant drop out/lack of sample, or being outliers in expression.
FASTQ files were assessed using fastQC version 0.11.9. Quantification at the transcript level was calculated using Salmon version 1.3.0 with fragment-level GC bias correction against the GENCODE version 35, with the whole genome as decoy sequence. Transcript-level quantification was collapsed onto gene-level using the tximport R package version 1.8.0. Genes in non-canonical chromosomes and scaffolds and transcripts encoded by the mitochondrial genome were filtered out, together with non-protein-coding genes. Low-expressed genes were likewise removed from downstream analyses (expression below 10 reads for 75% of the samples). PBMC and muscle datasets were analysed independently. For PBMC samples, cell type composition was assessed employing ABIS. Differential gene expression was performed using the DESeq2 R package version 1.22.2. The generalized linear model formula accounted for both interindividual variability between subjects and the normal course of the experiment (baseline for each subject and baseline for the time-course). Multiple hypothesis testing was performed with the default automatic filtering of DESeq2 followed by false discovery rate (FDR) calculation by the Benjamini-Hochberg procedure.

[2] = system: cerebral NAD; experiment: 31P-MRS of the brain, phase I trial of oral NR in newly diagnosed PD patients; type: in vivo, human
Protocol: A trial of tolerability and cerebral bioavailability of NAD supplementation therapy with nicotinamide riboside (“NR”), provided in the form of nicotinamide riboside chloride ([…]® from Chromadex) in PD patients was completed. In the trial, 30 individuals with newly diagnosed, drug naïve PD were randomized and given NR 500 mg×2/day or placebo for a period of 30 days. 31P-MRS was performed at baseline (Visit 1) and at on the last day of treatment (Visit 2). The scans of 27 individuals passed quality control at both visits. A single-center, double-blinded, randomized, placebo-controlled phase I trial of oral NR supplementation in newly diagnosed patients with PD was conducted. […] Due to the early onset, this patient underwent genetic investigation with whole-exome sequencing and SNP-chip based genome-wide copy number variation analysis, which excluded pathogenic mutations in PD-related genes, including PINK1 and PRKN. screening. Patient recruitment, inclusion, and follow-up was carried out by a GCP certified investigator. Sample size of 30 participants was chosen based on previously reported brain metabolic network analyses. Thirty PD patients were randomly assigned (Block size 6, allocation 1:1) to 500 mg NR, provided in the form of nicotinamide riboside chloride ([…]® from Chromadex), or placebo twice per day, 12 hours apart, using the electronic Case Report Form (Viedoc.com). The drug containers were sequentially marked by an independent third party. The […]®) and placebo were provided by ChromaDex, USA. Each NR capsule contained 250 mg of NR. Placebo capsules contained microcrystalline cellulose. The vials and capsules containing NR and placebo were identical in shape, colour, and smell. Study drug compliance was calculated from counting returned number of study capsules and self-reporting. Participants, examining physicians, medical- and research personnel were blinded for the duration of the trial. Sample size was determined by comparing previous literature with respect to the primary objective. At screening for trial entry, candidates underwent physical and neurological examination, brain MRI, and […]. Eligible patients who entered the trial were assessed at baseline (visit 1, V1) and after four weeks of exposure to either NR or placebo (visit 2, V2). At both visits, patients underwent physical and neurological examination, including assessment by the Movement Disorder Society Unified Parkinson's Disease Rating Scale section I-IV (MDS-UPDRS), and biological sampling. MR-PET was performed within one week prior to visit 1, and at visit 2. All participants remained naïve for antiparkinson drugs for the duration of the trial. All clinical assessments were performed by a blinded movement disorders expert. Each patient was examined by the same neurologist at both visits. Methodological details on each procedure are provided below. Safety was monitored through routine clinical blood tests and registration of adverse events. Adverse events (AE) were recorded and scored by the investigative physician. […] The AE relation to the study drug was scored as (1) unrelated, (2) unlikely, (3) possible, (4) probable or (5) definitely. MRI/S was conducted on a 3T Biograph mMR MR-PET scanner (Siemens Healthcare, Germany). Phosphorous MRS (31P-MRS) was performed on a double-resonant transmit/receive 1H/31P volume head-coil (Rapid Biomedical, Germany). […]

`NC(=O)c1ccc[n+]([C@@H]2O[C@H](CO)[C@@H](O)[C@H]2O)c1` [NR, nicotinamide riboside] was tested, and the “BLOC1S2 expression in PBMCs” value ([1]; NR vs placebo) was “upregulation”, the “functional enrichment in PBMCs: ribosomal, proteasomal, lysosomal and mitochondrial (oxidative phosphorylation) pathways” value ([1]; NR vs placebo) was “highly significant upregulation” and the “genes encoding known NAD biosynthetic enzymes including NMRK1” value ([1]; NR vs placebo) was “No significant changes”. For the same compound, the “number of genes significantly associated with NR supplementation in PBMCs” value ([1]; NR vs placebo) was 13 genes, the “Direction of pathway enrichment (MitoCarta v3.0): mtRNA metabolism” value ([1]; P 0.003136, corrected P 0.13170171) was “DOWN” and the “Direction of pathway enrichment (MitoCarta v3.0): mt-tRNA modifications” value ([1]; P 0.009994, corrected P 0.209874) was “DOWN”. The “Direction of pathway enrichment (MitoCarta v3.0): Cl assembly factors” value ([1]; P 0.013122, corrected P 0.183708) was “DOWN”, the “Direction of pathway enrichment (MitoCarta v3.0): mtRNA granules” value ([1]; P 0.018336, corrected P 0.192528) was “DOWN” and the “Direction of pathway enrichment (MitoCarta v3.0): Vitamin metabolism” value ([1]; P 0.02605831, corrected P 0.21888977) was “DOWN”. The “Direction of pathway enrichment (MitoCarta v3.0): Mitochondrial ribosome assembly” value ([1]; P 0.027256, corrected P 0.190792) was “DOWN”, the “Direction of pathway enrichment (MitoCarta v3.0): mt-tRNA synthetases” value ([1]; P 0.03548, corrected P 0.21288) was “DOWN” and the “Direction of pathway enrichment (MitoCarta v3.0): OXPHOS assembly factors” value ([1]; P 0.04239743, corrected P 0.2225865) was “DOWN”. For the same compound, the “association with estimated cell type proportions in PBMC samples” value ([1]; p>0.5) was “did not show a significant association”, the “cerebral NAD levels normalized to ATP-α, visit 2 vs baseline” value ([2]; NR group n=13, oral NR 500 mg x2/day, 30 days, paired t-test p=0.016) was “highly significant increase” and the “other metabolites detected by 31P-MRS, change between visits” value ([2]; NR group, 30 days) was “No other detected metabolites exhibited significant change”. The “patients showing an increase in cerebral NAD (MRS-responders)” value ([2]; NR recipients with MRS data, 30 days) was 10/13, the “patients with cerebral NAD change exceeding 10% of baseline levels” value ([2]; of the 10 MRS-responders among 13 NR recipients) was 9 and the “between visit change (visit 2/visit 1) in NAD/ATP-α ratio, NR vs placebo group” value ([2]; oral NR 500 mg x2/day, 30 days, t-test p=0.025) was “significantly higher”.
